Test results taken from PMC6886798, “Expression of myeloid Src-family kinases is associated with poor prognosis in AML and influences Flt3-ITD kinase inhibitor acquired resistance” (PLoS ONE, 2019).

Key:
Assay in all cases: KINOMEscan
Format in all cases: binding
Conditions in all cases: 1.0 µM
[1] = molecular target: T1, ABL1(H396P)-phosphorylated (Homo sapiens, UniProt P00519, H396P)
T1 construct: purchased Eurofins/DiscoverX KINOMEscan scanMAX
Method: (§1) Kinase retention to the immobilized ligand is then measured using quantitative real-time PCR for each kinase-specific DNA barcode.

[2] = molecular target: T2, ABL1(Q252H)-nonphosphorylated (Homo sapiens, UniProt P00519, Q252H)
T2 construct: purchased Eurofins/DiscoverX KINOMEscan scanMAX
Method: as §1

ACVR1 = molecular target: T3, ACVR1 (Homo sapiens, UniProt Q04771)
T3 construct: purchased Eurofins/DiscoverX KINOMEscan scanMAX
Method: as §1

ADCK3 = molecular target: T4, ADCK3 (Homo sapiens, UniProt Q8NI60)
T4 construct: purchased Eurofins/DiscoverX KINOMEscan scanMAX
Method: as §1

AKT3 = molecular target: T5, AKT3 (Homo sapiens, UniProt Q9Y243)
T5 construct: purchased Eurofins/DiscoverX KINOMEscan scanMAX
Method: as §1

BIKE = molecular target: T6, BIKE (Homo sapiens, UniProt Q9NSY1)
T6 construct: purchased Eurofins/DiscoverX KINOMEscan scanMAX
Method: as §1

BRSK2 = molecular target: T7, BRSK2 (Homo sapiens, UniProt Q8IWQ3)
T7 construct: purchased Eurofins/DiscoverX KINOMEscan scanMAX
T7 sequence (Q8IWQ3 whole entry): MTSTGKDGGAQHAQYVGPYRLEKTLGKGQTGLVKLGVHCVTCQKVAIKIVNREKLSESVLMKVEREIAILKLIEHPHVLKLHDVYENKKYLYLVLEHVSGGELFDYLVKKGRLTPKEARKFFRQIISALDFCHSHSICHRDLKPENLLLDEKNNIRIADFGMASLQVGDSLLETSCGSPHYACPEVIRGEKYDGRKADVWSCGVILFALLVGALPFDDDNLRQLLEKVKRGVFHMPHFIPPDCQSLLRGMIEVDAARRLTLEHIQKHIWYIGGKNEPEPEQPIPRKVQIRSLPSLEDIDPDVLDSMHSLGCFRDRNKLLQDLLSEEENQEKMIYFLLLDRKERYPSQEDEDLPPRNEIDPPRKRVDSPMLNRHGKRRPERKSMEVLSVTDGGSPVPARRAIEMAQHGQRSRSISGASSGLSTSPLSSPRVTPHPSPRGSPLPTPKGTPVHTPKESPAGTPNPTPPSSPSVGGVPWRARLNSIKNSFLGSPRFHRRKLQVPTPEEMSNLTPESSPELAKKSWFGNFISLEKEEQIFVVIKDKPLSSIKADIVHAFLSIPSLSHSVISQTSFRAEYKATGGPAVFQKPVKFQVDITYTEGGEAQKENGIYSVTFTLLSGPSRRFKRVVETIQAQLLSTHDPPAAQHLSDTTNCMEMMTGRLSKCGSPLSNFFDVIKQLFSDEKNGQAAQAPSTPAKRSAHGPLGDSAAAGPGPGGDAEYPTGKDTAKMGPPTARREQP
Method: as §1

BUB1 = molecular target: T8, BUB1 (Homo sapiens, UniProt O43683)
T8 construct: purchased Eurofins/DiscoverX KINOMEscan scanMAX
T8 sequence (O43683 whole entry): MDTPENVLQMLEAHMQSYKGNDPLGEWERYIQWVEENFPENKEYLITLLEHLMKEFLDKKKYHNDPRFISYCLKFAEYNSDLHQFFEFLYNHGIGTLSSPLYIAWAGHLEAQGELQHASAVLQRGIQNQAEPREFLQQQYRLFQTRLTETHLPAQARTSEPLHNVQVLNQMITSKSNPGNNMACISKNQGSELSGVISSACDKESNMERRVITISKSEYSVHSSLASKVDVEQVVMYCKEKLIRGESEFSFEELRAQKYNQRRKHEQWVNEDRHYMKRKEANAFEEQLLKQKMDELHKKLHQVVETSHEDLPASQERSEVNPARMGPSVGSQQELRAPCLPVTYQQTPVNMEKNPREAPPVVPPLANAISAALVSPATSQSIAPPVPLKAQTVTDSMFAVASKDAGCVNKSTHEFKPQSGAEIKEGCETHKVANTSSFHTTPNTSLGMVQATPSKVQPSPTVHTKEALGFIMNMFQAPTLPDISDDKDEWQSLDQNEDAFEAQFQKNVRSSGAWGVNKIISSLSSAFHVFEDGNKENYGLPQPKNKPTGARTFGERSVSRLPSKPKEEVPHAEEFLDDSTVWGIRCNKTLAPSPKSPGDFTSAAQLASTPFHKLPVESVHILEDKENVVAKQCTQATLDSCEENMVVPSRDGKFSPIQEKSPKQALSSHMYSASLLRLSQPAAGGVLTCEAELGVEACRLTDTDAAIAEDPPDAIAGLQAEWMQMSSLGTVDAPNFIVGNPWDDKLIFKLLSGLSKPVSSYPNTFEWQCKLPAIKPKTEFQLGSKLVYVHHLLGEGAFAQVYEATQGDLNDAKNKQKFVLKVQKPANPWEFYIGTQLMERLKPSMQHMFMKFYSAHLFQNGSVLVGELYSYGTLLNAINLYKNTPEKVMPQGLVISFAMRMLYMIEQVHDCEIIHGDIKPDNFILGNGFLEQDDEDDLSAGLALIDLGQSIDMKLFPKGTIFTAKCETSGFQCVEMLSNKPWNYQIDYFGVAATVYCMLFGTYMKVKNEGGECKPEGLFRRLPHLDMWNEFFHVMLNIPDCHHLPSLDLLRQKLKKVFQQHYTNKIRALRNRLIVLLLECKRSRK
Method: as §1

CAMK1G = molecular target: T9, CAMK1G (Homo sapiens, UniProt Q96NX5)
T9 construct: purchased Eurofins/DiscoverX KINOMEscan scanMAX
Method: as §1

CLK1 = molecular target: T10, CLK1 (Homo sapiens, UniProt P49759)
T10 construct: purchased Eurofins/DiscoverX KINOMEscan scanMAX
Method: as §1

CLK2 = molecular target: T11, CLK2 (Homo sapiens, UniProt P49760)
T11 construct: purchased Eurofins/DiscoverX KINOMEscan scanMAX
T11 sequence (P49760 whole entry): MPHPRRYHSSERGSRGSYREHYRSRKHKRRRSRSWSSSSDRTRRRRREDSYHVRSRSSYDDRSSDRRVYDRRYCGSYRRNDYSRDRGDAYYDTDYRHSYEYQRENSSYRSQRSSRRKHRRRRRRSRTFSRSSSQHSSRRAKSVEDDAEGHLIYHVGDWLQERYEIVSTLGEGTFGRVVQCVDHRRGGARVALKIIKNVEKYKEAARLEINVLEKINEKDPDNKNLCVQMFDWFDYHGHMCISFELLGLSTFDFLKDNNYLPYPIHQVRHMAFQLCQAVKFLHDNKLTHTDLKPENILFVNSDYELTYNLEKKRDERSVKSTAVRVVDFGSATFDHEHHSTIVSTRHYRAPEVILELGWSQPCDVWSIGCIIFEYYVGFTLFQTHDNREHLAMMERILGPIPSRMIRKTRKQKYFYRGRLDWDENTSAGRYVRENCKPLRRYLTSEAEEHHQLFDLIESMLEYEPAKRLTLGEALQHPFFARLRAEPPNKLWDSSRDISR
Method: as §1

CSNK2A1 = molecular target: T12, CSNK2A1 (Homo sapiens, UniProt P68400)
T12 construct: purchased Eurofins/DiscoverX KINOMEscan scanMAX
Method: as §1

DCAMKL2 = molecular target: T13, DCAMKL2 (Homo sapiens, UniProt Q8N568)
T13 construct: purchased Eurofins/DiscoverX KINOMEscan scanMAX
Method: as §1

DDR2 = molecular target: T14, DDR2 (Homo sapiens, UniProt Q16832)
T14 construct: purchased Eurofins/DiscoverX KINOMEscan scanMAX
Method: as §1

EPHA6 = molecular target: T15, EPHA6 (Homo sapiens, UniProt Q9UF33)
T15 construct: purchased Eurofins/DiscoverX KINOMEscan scanMAX
Method: as §1

EPHB6 = molecular target: T16, EPHB6 (Homo sapiens, UniProt O15197)
T16 construct: purchased Eurofins/DiscoverX KINOMEscan scanMAX
T16 sequence (O15197 32-1021): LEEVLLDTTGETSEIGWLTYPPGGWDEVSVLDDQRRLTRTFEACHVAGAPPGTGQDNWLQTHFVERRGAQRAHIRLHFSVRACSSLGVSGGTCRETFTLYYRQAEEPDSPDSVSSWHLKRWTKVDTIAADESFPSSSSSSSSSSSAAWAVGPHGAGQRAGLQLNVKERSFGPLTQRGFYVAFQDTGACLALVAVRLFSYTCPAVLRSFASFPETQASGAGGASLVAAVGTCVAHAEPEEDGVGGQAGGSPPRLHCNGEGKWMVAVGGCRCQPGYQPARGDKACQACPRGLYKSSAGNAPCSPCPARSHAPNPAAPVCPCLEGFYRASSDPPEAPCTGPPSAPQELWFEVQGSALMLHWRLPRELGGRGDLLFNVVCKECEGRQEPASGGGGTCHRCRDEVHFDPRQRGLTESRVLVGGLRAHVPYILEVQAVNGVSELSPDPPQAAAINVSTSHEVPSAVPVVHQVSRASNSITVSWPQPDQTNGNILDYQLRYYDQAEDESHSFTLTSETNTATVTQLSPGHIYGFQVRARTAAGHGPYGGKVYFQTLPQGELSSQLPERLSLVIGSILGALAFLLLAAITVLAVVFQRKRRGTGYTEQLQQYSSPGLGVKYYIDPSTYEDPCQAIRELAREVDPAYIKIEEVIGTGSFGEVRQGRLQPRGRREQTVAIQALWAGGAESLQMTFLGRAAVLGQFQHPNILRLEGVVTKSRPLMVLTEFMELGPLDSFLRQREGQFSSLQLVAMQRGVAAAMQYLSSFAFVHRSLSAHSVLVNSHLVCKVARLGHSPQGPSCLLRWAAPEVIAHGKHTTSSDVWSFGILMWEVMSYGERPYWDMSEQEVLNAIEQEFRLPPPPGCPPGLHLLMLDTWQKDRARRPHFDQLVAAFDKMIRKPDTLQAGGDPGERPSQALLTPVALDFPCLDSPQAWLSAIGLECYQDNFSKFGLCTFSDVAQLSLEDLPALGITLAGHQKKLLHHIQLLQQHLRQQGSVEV
Method: as §1

ERK2 = molecular target: T17, ERK2 (Homo sapiens, UniProt P28482)
T17 construct: purchased Eurofins/DiscoverX KINOMEscan scanMAX
Method: as §1

FGFR1 = molecular target: T18, FGFR1 (Homo sapiens, UniProt P11362)
T18 construct: purchased Eurofins/DiscoverX KINOMEscan scanMAX
Method: as §1

FYN = molecular target: T19, FYN (Homo sapiens, UniProt P06241)
T19 construct: purchased Eurofins/DiscoverX KINOMEscan scanMAX
Method: as §1

IKK-alpha = molecular target: T20, IKK-alpha (Homo sapiens, UniProt O15111)
T20 construct: purchased Eurofins/DiscoverX KINOMEscan scanMAX
Method: as §1

KIT(D816V) = molecular target: T21, KIT(D816V) (Homo sapiens, UniProt P10721, D816V)
T21 construct: purchased Eurofins/DiscoverX KINOMEscan scanMAX
Method: as §1

LATS2 = molecular target: T22, LATS2 (Homo sapiens, UniProt Q9NRM7)
T22 construct: purchased Eurofins/DiscoverX KINOMEscan scanMAX
Method: as §1

MKK7 = molecular target: T23, MKK7 (Homo sapiens, UniProt O14733)
T23 construct: purchased Eurofins/DiscoverX KINOMEscan scanMAX
Method: as §1

MLK1 = molecular target: T24, MLK1 (Homo sapiens, UniProt P80192)
T24 construct: purchased Eurofins/DiscoverX KINOMEscan scanMAX
Method: as §1

MST1R = molecular target: T25, MST1R (Homo sapiens, UniProt Q04912)
T25 construct: purchased Eurofins/DiscoverX KINOMEscan scanMAX
Method: as §1

MYLK = molecular target: T26, MYLK (Homo sapiens, UniProt Q15746)
T26 construct: purchased Eurofins/DiscoverX KINOMEscan scanMAX
Method: as §1

OSR1 = molecular target: T27, OSR1 (Homo sapiens, UniProt O95747)
T27 construct: purchased Eurofins/DiscoverX KINOMEscan scanMAX
Method: as §1

PHKG2 = molecular target: T28, PHKG2 (Homo sapiens, UniProt P15735)
T28 construct: purchased Eurofins/DiscoverX KINOMEscan scanMAX
Method: as §1

PIK3CA(E545A) = molecular target: T29, PIK3CA(E545A) (Homo sapiens, UniProt P42336, E545A)
T29 construct: purchased Eurofins/DiscoverX KINOMEscan scanMAX
T29 sequence (P42336 whole entry E545A): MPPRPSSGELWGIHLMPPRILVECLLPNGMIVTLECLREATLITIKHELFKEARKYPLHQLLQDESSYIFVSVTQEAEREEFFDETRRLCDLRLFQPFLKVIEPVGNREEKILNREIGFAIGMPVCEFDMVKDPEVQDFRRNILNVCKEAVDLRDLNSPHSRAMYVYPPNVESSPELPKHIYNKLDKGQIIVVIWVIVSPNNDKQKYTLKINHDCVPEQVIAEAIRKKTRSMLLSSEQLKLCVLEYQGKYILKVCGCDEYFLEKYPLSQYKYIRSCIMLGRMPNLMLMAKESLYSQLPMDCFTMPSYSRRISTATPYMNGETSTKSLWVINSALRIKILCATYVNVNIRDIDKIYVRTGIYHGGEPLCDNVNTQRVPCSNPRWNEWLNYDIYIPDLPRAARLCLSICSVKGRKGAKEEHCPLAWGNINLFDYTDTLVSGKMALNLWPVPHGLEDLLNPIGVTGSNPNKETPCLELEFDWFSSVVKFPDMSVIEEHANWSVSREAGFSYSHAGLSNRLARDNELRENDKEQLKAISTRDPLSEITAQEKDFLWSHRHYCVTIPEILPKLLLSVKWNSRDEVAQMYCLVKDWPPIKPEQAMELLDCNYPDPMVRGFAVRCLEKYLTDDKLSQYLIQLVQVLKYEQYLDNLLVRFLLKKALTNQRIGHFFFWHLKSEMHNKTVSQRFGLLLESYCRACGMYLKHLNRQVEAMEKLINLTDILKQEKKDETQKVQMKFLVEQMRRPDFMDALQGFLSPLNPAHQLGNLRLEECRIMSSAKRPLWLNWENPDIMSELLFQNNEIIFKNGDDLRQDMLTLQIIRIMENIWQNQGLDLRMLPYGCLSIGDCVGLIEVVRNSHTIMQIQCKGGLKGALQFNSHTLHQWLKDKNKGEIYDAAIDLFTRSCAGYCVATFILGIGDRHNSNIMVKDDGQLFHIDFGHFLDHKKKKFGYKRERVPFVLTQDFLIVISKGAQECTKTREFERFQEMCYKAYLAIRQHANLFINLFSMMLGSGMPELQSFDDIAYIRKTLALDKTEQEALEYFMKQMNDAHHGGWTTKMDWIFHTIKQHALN
Method: as §1

PRKG1 = molecular target: T30, PRKG1 (Homo sapiens, UniProt Q13976)
T30 construct: purchased Eurofins/DiscoverX KINOMEscan scanMAX
Method: as §1

RIPK5 = molecular target: T31, RIPK5 (Homo sapiens, UniProt Q6XUX3)
T31 construct: purchased Eurofins/DiscoverX KINOMEscan scanMAX
Method: as §1

S6K1 = molecular target: T32, S6K1 (Homo sapiens, UniProt P23443)
T32 construct: purchased Eurofins/DiscoverX KINOMEscan scanMAX
T32 sequence (P23443 whole entry): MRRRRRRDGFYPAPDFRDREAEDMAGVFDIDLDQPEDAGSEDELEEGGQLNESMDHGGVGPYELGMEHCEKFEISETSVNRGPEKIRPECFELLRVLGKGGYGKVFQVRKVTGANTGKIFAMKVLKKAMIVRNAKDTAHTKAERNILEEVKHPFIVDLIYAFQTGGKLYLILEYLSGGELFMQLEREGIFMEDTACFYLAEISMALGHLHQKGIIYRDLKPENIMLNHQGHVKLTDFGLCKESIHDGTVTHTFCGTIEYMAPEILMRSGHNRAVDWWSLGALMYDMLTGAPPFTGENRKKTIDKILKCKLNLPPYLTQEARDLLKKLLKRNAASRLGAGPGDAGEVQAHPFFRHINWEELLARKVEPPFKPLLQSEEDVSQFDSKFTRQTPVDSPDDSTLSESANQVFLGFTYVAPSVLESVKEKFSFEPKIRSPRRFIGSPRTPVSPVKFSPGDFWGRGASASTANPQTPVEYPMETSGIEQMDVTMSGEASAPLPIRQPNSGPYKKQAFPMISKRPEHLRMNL
Method: as §1

SBK1 = molecular target: T33, SBK1 (Homo sapiens, UniProt Q52WX2)
T33 construct: purchased Eurofins/DiscoverX KINOMEscan scanMAX
Method: as §1

SIK2 = molecular target: T34, SIK2 (Homo sapiens, UniProt Q9H0K1)
T34 construct: purchased Eurofins/DiscoverX KINOMEscan scanMAX
Method: as §1

STK39 = molecular target: T35, STK39 (Homo sapiens, UniProt Q9UEW8)
T35 construct: purchased Eurofins/DiscoverX KINOMEscan scanMAX
Method: as §1

SYK = molecular target: T36, SYK (Homo sapiens, UniProt P43405)
T36 construct: purchased Eurofins/DiscoverX KINOMEscan scanMAX
Method: as §1

TGFBR2 = molecular target: T37, TGFBR2 (Homo sapiens, UniProt P37173)
T37 construct: purchased Eurofins/DiscoverX KINOMEscan scanMAX
Method: as §1

TLK2 = molecular target: T38, TLK2 (Homo sapiens, UniProt Q86UE8)
T38 construct: purchased Eurofins/DiscoverX KINOMEscan scanMAX
Method: as §1

TRKA = molecular target: T39, TRKA (Homo sapiens, UniProt P04629)
T39 construct: purchased Eurofins/DiscoverX KINOMEscan scanMAX
Method: as §1

TRKC = molecular target: T40, TRKC (Homo sapiens, UniProt Q16288)
T40 construct: DNA tag (qPCR barcode); purchased Eurofins/DiscoverX KINOMEscan scanMAX
Method: as §1

WNK2 = molecular target: T41, WNK2 (Homo sapiens, UniProt Q9Y3S1)
T41 construct: DNA tag (qPCR barcode); purchased Eurofins/DiscoverX KINOMEscan scanMAX
Method: as §1

YANK2 = molecular target: T42, YANK2 (Homo sapiens, UniProt Q9NY57)
T42 construct: purchased Eurofins/DiscoverX (KINOMEscan scanMAX service)
Method: as §1

p38-beta = molecular target: T43, p38-beta (Homo sapiens, UniProt Q15759)
T43 construct: purchased Eurofins/DiscoverX KINOMEscan scanMAX
Method: as §1

CN1CCN(C2CCC(n3cc(-c4ccc(Oc5ccccc5)cc4)c4c(N)ncnc43)CC2)CC1 (stereo not shown) [A-419259]
% Control [1]: 0.65% | % Control [2]: 0.85% | % Control (ACVR1): 100% | % Control (ADCK3): 100% | % Control (AKT3): 100% | % Control (BIKE): 80% | % Control (BRSK2): 10% | % Control (BUB1): 100% | % Control (CAMK1G): 100% | % Control (CLK1): 100% | % Control (CLK2): 100% | % Control (CSNK2A1): 100% | % Control (DCAMKL2): 87% | % Control (DDR2): 59% | % Control (EPHA6): 94% | % Control (EPHB6): 6.8% | % Control (ERK2): 77% | % Control (FGFR1): 1.6% | % Control (FYN): 5.1% | % Control (IKK-alpha): 90% | % Control (KIT(D816V)): 70% | % Control (LATS2): 18% | % Control (MKK7): 46% | % Control (MLK1): 88% | % Control (MST1R): 96% | % Control (MYLK): 94% | % Control (OSR1): 100% | % Control (PHKG2): 100% | % Control (PIK3CA(E545A)): 100% | % Control (PRKG1): 100% | % Control (RIPK5): 7.1% | % Control (S6K1): 27% | % Control (SBK1): 96% | % Control (SIK2): 19% | % Control (STK39): 100% | % Control (SYK): 100% | % Control (TGFBR2): 100% | % Control (TLK2): 100% | % Control (TRKA): 16% | % Control (TRKC): 45% | % Control (WNK2): 67% | % Control (YANK2): 30% | % Control (p38-beta): 100%
